# Assay results taken from the supplement of paper PMC10307832.
# Legend:
# Test in all cases: relative viability (nuclei count vs DMSO), 5 days (fraction); higher = more cells survive
# Obatoclax + Vorinostat = compound: COC1=CC(c2cc3ccccc3[nH]2)=N/C1=C\c1[nH]c(C)cc1C [Obatoclax] + O=C(CCCCCCC(=O)Nc1ccccc1)NO [Vorinostat] (partner 1 µM)
# Method in brief: (§1)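 For relative viability, nuclei counts in treated wells were divided by those in vehicle wells. Lung cancer cell lines had been pin-tool dosed in 1536-well plates the day after seeding and cultured for 5 days, then fixed and stained in one step (final 0.05% Triton X-100, 1% formaldehyde, 1 ug/ml Hoechst) and imaged at 4×. Doses were one drug alone or a fixed anchor-drug dose plus five library-drug doses (not always all listed) in √10 steps, and values are duplicate-plate medians.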
# Obatoclax + OSI-027 = compound: COC1=CC(c2cc3ccccc3[nH]2)=N/C1=C\c1[nH]c(C)cc1C [Obatoclax] + COc1cccc2cc(-c3nc([C@H]4CC[C@H](C(=O)O)CC4)n4ncnc(N)c34)[nH]c12 [OSI-027] (partner 0.5 µM)
# Method in brief: as §1
# Obatoclax + Pictilisib = compound: COC1=CC(c2cc3ccccc3[nH]2)=N/C1=C\c1[nH]c(C)cc1C [Obatoclax] + CS(=O)(=O)N1CCN(Cc2cc3nc(-c4cccc5[nH]ncc45)nc(N4CCOCC4)c3s2)CC1 [Pictilisib] (partner 1 µM)
# Method in brief: as §1
# [1] = compound: CC1=CC(=NN1)NC2=CC(=NC(=N2)/C=C/C3=CC=CC=C3)N4CCN(CC4)C + Cc1nc(NC(=O)N2CCC[C@H]2C(N)=O)sc1-c1ccnc(C(C)(C)C(F)(F)F)c1 [Alpelisib] (partner 2 µM)
# Method in brief: as §1
Cell Line,relative viability (Obatoclax + Vorinostat; first compound 0.01 µM),relative viability (Obatoclax + Vorinostat; first compound 0.03162 µM),relative viability (Obatoclax + Vorinostat; first compound 0.1 µM),relative viability (Obatoclax + Vorinostat; first compound 0.3162 µM),relative viability (Obatoclax + Vorinostat; first compound 1 µM),relative viability (Obatoclax + OSI-027; first compound 0.01 µM),relative viability (Obatoclax + OSI-027; first compound 0.03162 µM),relative viability (Obatoclax + OSI-027; first compound 0.1 µM),relative viability (Obatoclax + OSI-027; first compound 0.3162 µM),relative viability (Obatoclax + OSI-027; first compound 1 µM),relative viability (Obatoclax + Pictilisib; first compound 0.01 µM),relative viability (Obatoclax + Pictilisib; first compound 0.03162 µM),relative viability (Obatoclax + Pictilisib; first compound 0.3162 µM),relative viability (Obatoclax + Pictilisib; first compound 1 µM),relative viability (Obatoclax + Pictilisib; first compound 0.1 µM),relative viability ([1]; first compound 0.08 µM),relative viability ([1]; first compound 0.253 µM),relative viability ([1]; first compound 0.8 µM),relative viability ([1]; first compound 2.53 µM),relative viability ([1]; first compound 8 µM)
ChaGo-K-1,0.756,0.587,0.637,0.742,0.795,0.694,0.549,0.522,0.512,0.63,0.77,0.504,0.675,0.877,–,–,–,–,–,–
EBC-1,–,–,–,–,–,–,–,–,–,–,0.376,0.284,0.214,0.177,0.257,0.83,0.87,0.788,0.183,0.128
EKVX,0.747,0.592,0.765,0.725,0.649,0.708,0.74,0.797,0.561,0.667,0.426,0.427,0.41,0.355,0.507,0.856,1.09,0.941,0.675,0.167
EMC-BAC-2,0.437,0.358,–,0.446,0.405,0.413,0.382,0.297,0.332,0.299,0.539,0.559,0.522,0.51,0.521,0.748,0.717,0.662,0.521,0.154
EPLC-272H,0.567,0.561,0.399,0.175,0.176,0.277,0.279,0.333,0.247,0.203,0.338,0.324,0.273,0.343,0.315,0.901,1.07,0.79,0.513,0.244
H3255,0.975,0.719,–,0.823,0.858,0.584,0.591,0.751,0.617,0.666,0.476,0.491,0.456,0.434,0.572,0.753,0.735,0.772,0.593,0.182
HARA,0.553,0.392,0.566,0.441,0.605,0.456,0.555,0.444,0.438,0.168,0.449,0.445,0.379,0.352,0.426,0.858,0.85,0.974,0.121,0.0791
HCC-15,0.875,0.815,0.83,0.747,0.786,0.745,0.641,0.446,0.662,0.447,0.737,0.658,0.686,0.471,0.744,0.856,1.03,0.828,0.494,0.0833
HCC-44,1.04,1.06,1.05,1.1,1.03,0.577,0.422,0.219,0.441,0.333,0.69,0.552,0.583,0.246,0.577,0.784,0.879,0.675,0.281,0.0774
